Source: PubChem BioAssay (NCI)
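Where inhibition never reached the appropriate level, the endpoint shown equals the highest concentration tested. Otherwise, values were interpolated linearly from a five-concentration, 48-hour dose response in 96-well plates. GI50 is the concentration that inhibits growth by half. TGI is the concentration that stops growth completely.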

What was measured:
Test in all cases: NCI tumour cell line growth inhibition, 48 h
786-0 renal = tested on: 786-0 renal
A498 renal = tested on: A498 renal
A549 NSCLC = tested on: A549 NSCLC
ACHN renal = tested on: ACHN renal
BT-549 breast = tested on: BT-549 breast
CAKI-1 renal = tested on: CAKI-1 renal
CCRF-CEM leukemia = tested on: CCRF-CEM leukemia
COLO 205 colon = tested on: COLO 205 colon
DU-145 prostate = tested on: DU-145 prostate
EKVX NSCLC = tested on: EKVX NSCLC
HCC-2998 colon = tested on: HCC-2998 colon
HCT-116 colon = tested on: HCT-116 colon
HCT-15 colon = tested on: HCT-15 colon
HL-60(TB) leukemia = tested on: HL-60(TB) leukemia
HOP-62 NSCLC = tested on: HOP-62 NSCLC
HOP-92 NSCLC = tested on: HOP-92 NSCLC
HS 578T breast = tested on: HS 578T breast
HT29 colon = tested on: HT29 colon
IGROV1 ovarian = tested on: IGROV1 ovarian
K-562 leukemia = tested on: K-562 leukemia
KM12 colon = tested on: KM12 colon
LOX IMVI melanoma = tested on: LOX IMVI melanoma
M14 melanoma = tested on: M14 melanoma
MALME-3M melanoma = tested on: MALME-3M melanoma
MCF7 breast = tested on: MCF7 breast
MDA-MB-231 breast = tested on: MDA-MB-231 breast
MDA-MB-435 = tested on: MDA-MB-435
MOLT-4 leukemia = tested on: MOLT-4 leukemia
NCI-H226 lung = tested on: NCI-H226 lung
NCI-H23 lung = tested on: NCI-H23 lung
NCI-H460 lung = tested on: NCI-H460 lung
NCI-H522 lung = tested on: NCI-H522 lung
NCI/ADR-RES ovarian = tested on: NCI/ADR-RES ovarian
OVCAR-3 ovarian = tested on: OVCAR-3 ovarian
OVCAR-4 ovarian = tested on: OVCAR-4 ovarian
OVCAR-5 ovarian = tested on: OVCAR-5 ovarian
OVCAR-8 ovarian = tested on: OVCAR-8 ovarian
PC-3 prostate = tested on: PC-3 prostate
RPMI-8226 leukemia = tested on: RPMI-8226 leukemia
RXF 393 renal = tested on: RXF 393 renal
SF-268 CNS = tested on: SF-268 CNS
SF-295 CNS = tested on: SF-295 CNS
SF-539 CNS = tested on: SF-539 CNS
SK-MEL-2 melanoma = tested on: SK-MEL-2 melanoma
SK-MEL-28 melanoma = tested on: SK-MEL-28 melanoma
SK-MEL-5 melanoma = tested on: SK-MEL-5 melanoma
SK-OV-3 ovarian = tested on: SK-OV-3 ovarian
SN12C renal = tested on: SN12C renal
SNB-19 CNS = tested on: SNB-19 CNS
SNB-75 CNS = tested on: SNB-75 CNS
SR leukemia = tested on: SR leukemia
SW-620 colon = tested on: SW-620 colon
T-47D breast = tested on: T-47D breast
TK-10 renal = tested on: TK-10 renal
U251 CNS = tested on: U251 CNS
UACC-257 melanoma = tested on: UACC-257 melanoma
UACC-62 melanoma = tested on: UACC-62 melanoma
UO-31 renal = tested on: UO-31 renal

CSc1nc2c(c(=O)[nH]1)N=C1c3ccccc3C(=O)C1C(c1ccc(F)cc1)N2 (stereo unspecified)
GI50 (786-0 renal): 12.4 µM
TGI (786-0 renal): 27.3 µM
GI50 (A498 renal): 4.88 µM
TGI (A498 renal): 20.5 µM
GI50 (A549 NSCLC): 12.6 µM
TGI (A549 NSCLC): > 100 µM
GI50 (ACHN renal): 11.6 µM
TGI (ACHN renal): 36.4 µM
GI50 (BT-549 breast): 8.5 µM
TGI (BT-549 breast): 41.2 µM
GI50 (CAKI-1 renal): 3.31 µM
TGI (CAKI-1 renal): 35.6 µM
GI50 (CCRF-CEM leukemia): 8.16 µM
TGI (CCRF-CEM leukemia): > 100 µM
GI50 (COLO 205 colon): 13 µM
TGI (COLO 205 colon): > 100 µM
GI50 (DU-145 prostate): 16.2 µM
TGI (DU-145 prostate): 42.2 µM
GI50 (EKVX NSCLC): 18.2 µM
TGI (EKVX NSCLC): > 100 µM
GI50 (HCC-2998 colon): 12.2 µM
TGI (HCC-2998 colon): 30.5 µM
GI50 (HCT-116 colon): 7.23 µM
TGI (HCT-116 colon): 19.9 µM
GI50 (HCT-15 colon): 4.57 µM
TGI (HCT-15 colon): > 100 µM
GI50 (HL-60(TB) leukemia): 6.54 µM
TGI (HL-60(TB) leukemia): > 100 µM
GI50 (HOP-62 NSCLC): 11.9 µM
TGI (HOP-62 NSCLC): 33.7 µM
GI50 (HOP-92 NSCLC): 9.52 µM
TGI (HOP-92 NSCLC): 48.8 µM
GI50 (HS 578T breast): 5.85 µM
TGI (HS 578T breast): 43.6 µM
GI50 (HT29 colon): 3.36 µM
TGI (HT29 colon): 12.3 µM
GI50 (IGROV1 ovarian): 11.3 µM
TGI (IGROV1 ovarian): > 100 µM
GI50 (K-562 leukemia): 4.05 µM
TGI (K-562 leukemia): > 100 µM
GI50 (KM12 colon): 3.77 µM
TGI (KM12 colon): 15.6 µM
GI50 (LOX IMVI melanoma): 8.78 µM
TGI (LOX IMVI melanoma): 30 µM
GI50 (M14 melanoma): 6.29 µM
TGI (M14 melanoma): > 100 µM
GI50 (MALME-3M melanoma): 19.6 µM
TGI (MALME-3M melanoma): > 100 µM
GI50 (MCF7 breast): 5.18 µM
TGI (MCF7 breast): 62.4 µM
GI50 (MDA-MB-231 breast): 12.6 µM
TGI (MDA-MB-231 breast): > 100 µM
GI50 (MDA-MB-435): 1.65 µM
TGI (MDA-MB-435): 8.76 µM
GI50 (MOLT-4 leukemia): 19.5 µM
TGI (MOLT-4 leukemia): > 100 µM
GI50 (NCI-H226 lung): 15.3 µM
TGI (NCI-H226 lung): 45.6 µM
GI50 (NCI-H23 lung): 13.5 µM
TGI (NCI-H23 lung): 55.9 µM
GI50 (NCI-H460 lung): 5.1 µM
TGI (NCI-H460 lung): 38.7 µM
GI50 (NCI-H522 lung): 3.17 µM
TGI (NCI-H522 lung): 37.9 µM
GI50 (NCI/ADR-RES ovarian): 6.42 µM
TGI (NCI/ADR-RES ovarian): 33.1 µM
GI50 (OVCAR-3 ovarian): 3.38 µM
TGI (OVCAR-3 ovarian): 12.5 µM
GI50 (OVCAR-4 ovarian): 15.4 µM
TGI (OVCAR-4 ovarian): 67 µM
GI50 (OVCAR-5 ovarian): 17.7 µM
TGI (OVCAR-5 ovarian): 41.1 µM
GI50 (OVCAR-8 ovarian): 13.1 µM
TGI (OVCAR-8 ovarian): 35.4 µM
GI50 (PC-3 prostate): 7.72 µM
TGI (PC-3 prostate): 95.2 µM
GI50 (RPMI-8226 leukemia): 4.2 µM
TGI (RPMI-8226 leukemia): > 100 µM
GI50 (RXF 393 renal): 14.5 µM
TGI (RXF 393 renal): 36.6 µM
GI50 (SF-268 CNS): 12.7 µM
TGI (SF-268 CNS): 49.9 µM
GI50 (SF-295 CNS): 3.67 µM
TGI (SF-295 CNS): 34.3 µM
GI50 (SF-539 CNS): 8.9 µM
TGI (SF-539 CNS): 29.4 µM
GI50 (SK-MEL-2 melanoma): 49.3 µM
TGI (SK-MEL-2 melanoma): > 100 µM
GI50 (SK-MEL-28 melanoma): 9.03 µM
TGI (SK-MEL-28 melanoma): 62.4 µM
GI50 (SK-MEL-5 melanoma): 6.13 µM
TGI (SK-MEL-5 melanoma): 66.6 µM
GI50 (SK-OV-3 ovarian): 14.1 µM
TGI (SK-OV-3 ovarian): 50.4 µM
GI50 (SN12C renal): 28.4 µM
TGI (SN12C renal): > 100 µM
GI50 (SNB-19 CNS): 15.9 µM
TGI (SNB-19 CNS): 66 µM
GI50 (SNB-75 CNS): 1.46 µM
TGI (SNB-75 CNS): 14.9 µM
GI50 (SR leukemia): 6.31 µM
TGI (SR leukemia): > 100 µM
GI50 (SW-620 colon): 4.48 µM
TGI (SW-620 colon): 70.7 µM
GI50 (T-47D breast): 14.2 µM
TGI (T-47D breast): 94.6 µM
GI50 (TK-10 renal): 12.9 µM
TGI (TK-10 renal): 37.6 µM
GI50 (U251 CNS): 5.43 µM
TGI (U251 CNS): 19.3 µM
GI50 (UACC-257 melanoma): 26 µM
TGI (UACC-257 melanoma): > 100 µM
GI50 (UACC-62 melanoma): 3.04 µM
TGI (UACC-62 melanoma): 48.9 µM
GI50 (UO-31 renal): 16.3 µM
TGI (UO-31 renal): > 100 µM
